Assay type in all cases: cell-based
In one test the test system is HIV-1LAI. Kind of test: H9 assay with wild-type HIV-1 (HIV-1LAI supernatant infection, AlamarBlue). The settings on record: Human immunodeficiency virus 1, 120 h, H9 cells, 10% FCS, 5 days. The protocol: For the mixture for a 96-well MTP, 3 million PBLs are pelleted, suspended in 1 ml of RPMI 1640 medium/10% FCS and incubated together with a suitable amount of HIV-1LAI (NIH AIDS Research & Reference Reagent Program, Germantown, USA) at 37° C. for 2 hours (pellet infection). Unadsorbed viruses are subsequently washed out with PBS, and the infected cells are pelleted again and suspended in 18 ml of RPMI 1640 medium/10% FCS/interleukin-2 (40 U/ml). 180 μl thereof are pipetted into each well of a white 96-well MTP with 20 μl of test substance in suitable dilution. Alternatively, after preparation of the substance dilutions in the MTP, the HIV is pipetted in together with the cells and is not washed out again (supernatant infection). In order to avoid edge effects, the wells at the edge of the MTP are not used for substance dilutions. The second vertical row of the MTP contains only infected cells (virus control) and the eleventh vertical row only uninfected cells (cell control), in each case in RPMI 1640 medium/10% FCS/interleukin-2 (40 U/ml). The other wells of the MTP contain the compounds of the invention in various concentrations starting from the third vertical row, from which the test substances are diluted in 3-fold steps up to the tenth vertical row 3^7-fold. The test substances are dissolved in DMSO, whereby the final DMSO concentration in the test mixture is 1%. The test mixtures are incubated at 37° C./5% CO2. After 5 and 7 days, 50 μl of cell-free supernatant are removed from each well to determine the amount of p24 present by means of a p24 ELISA (HIV-1 p24^CA Antigen Capture Assay Kit, NCI-Frederick Cancer Research and Development Center, Frederick, USA). From the resulting values of the photometric evaluation (450/620 nm) the EC50 values of the test substances are determined as the concentration at which the amount of p24 is 50% of the untreated infected cells.
Alternatively, H9 cells (ATCC, Wesel, Germany) are employed instead of PBLs for testing the test substances. H9 cells are incubated in RPMI 1640 medium with 2% or 10% FCS as a HIV-1LAI supernatant infection at 37° C./5% CO2, (20 μl of substance dilution and 80 μl of cells/virus per well) in accordance with the pattern described above for 5 days. Subsequently, 10 μl of AlamarBlue (Invitrogen, Karlsruhe, Germany) are added to each well, and the MTPs are incubated at 37° C. for 3 hours before the fluorimetric evaluation takes place (544/590 nm). The resulting values are about 40 000 for the untreated uninfected cells and about 7000 for the untreated infected cells. In the low concentration range, the EC50 values of the test substances are determined as the concentration at which the fluorescence is 50% of the untreated uninfected cells (in each case subtracting the values of the untreated infected cells). In addition, in the high concentration range, the CC50 values of the test substances are determined as the concentration at which the fluorescence is 50% of the untreated uninfected cells (in each case subtracting the values of the untreated infected cells).
For orientation: The colour change of resazurin is a common sign of viable cells or microbes.

Test [1] relates to HIV-1NL4-3 reporter virus, wild-type. Kind of test: Light assay with wild-type HI reporter virus in MT4 7F2 cells. The settings on record: Human immunodeficiency virus 1, 120 h, read-out: EC50 (nM) MT4 7F2 cells HIV-1NL4-M3 wt 2% FCS. The protocol:
(§1) For the mixture for a 96-well MTP, 3 million MT4 7F2 cells are pelleted, suspended in 1 ml of RPMI 1640 medium without phenol red (Invitrogen, Karlsruhe, Germany)/10% FCS/10% AIM-V (Invitrogen, Karlsruhe, Germany) and incubated together with a suitable amount of the corresponding HIV-1NL4-3 reporter virus at 37° C. for 2 hours (pellet infection). Unadsorbed viruses are subsequently washed out with PBS, and the infected cells are pelleted again and suspended in 8 ml of RPMI 1640 medium without phenol red/2% or 10% FCS/10% AIM-V. 80 μl thereof are pipetted into each well of a white 96-well MTP with 20 μl of test substance in suitable dilution. To avoid edge effects, the wells on the edge of the MTP are not used for substance dilutions. The second vertical row of the MTP contains only infected cells (virus control) and the eleventh vertical row only uninfected cells (cell control), in each case in RPMI 1640 medium without phenol red/2% or 10% FCS/10% AIM-V. The other wells of the MTP contain the compounds of the invention in various concentrations starting from the third vertical row, from which the test substances are diluted in 3-fold steps up to the tenth vertical row 3^7-fold. The test substances are dissolved in DMSO, whereby the final DMSO concentration in the test mixture is 1%. The test mixtures are incubated at 37° C./5% CO2 for five days and, after the addition of 15 μl of Lu164 substrate (5 mg/ml coelenterazine dissolved in 30 μM glutathione/DMSO, 100 mM NaCl, 1M MES, 100 mM glutathione), evaluated by luminometry. The resulting values are in the region of 1 000 000 RLUs (relative light units) for the virus control and 300 to 400 RLUs for the cell control. The EC50 values of the test substances are determined as the concentration at which the virus replication measured in RLUs is 50% of the untreated infected cells.

The test system of test [2] is HIV-1NL4-3 reporter virus, reverse transcriptase mutations K103N-Y181C. As to the kind of experiment: Light assay with inhibitor-resistant HI reporter virus in MT4 7F2 cells. The conditions noted are these: Human immunodeficiency virus 1, 120 h, read-out: EC50 (nM) MT4 7F2 cells HIV-1NL4-M3 K103N-Y181C 2% FCS. The protocol: as §1

One may read the EC50 as the midpoint of the concentration-response curve. For the molecule `O=C1CN(C(=O)c2nc(-c3cccc(Cl)c3)c(-c3ccc(F)c(Cl)c3)s2)CN1` [Example 4, 1-{[5-(3-Chloro-4-fluorophenyl)-4-(3-chlorophenyl)-1,3-thiazole-2-yl]carbonyl}imidazolidin-4-one], the EC50 in the test with HIV-1LAI was determined as 80 nM; in test [1], 10 nM; in test [2] it was 143 nM.

Regarding `N#Cc1cc(-c2sc(C(=O)N3CNC(=O)C3)nc2-c2cccc(Cl)c2)ccc1F` [Example 5, 5-{4-(3-Chlorophenyl)-2-[(4-oxoimidazolidin-1-yl)carbonyl]-1,3-thiazole-5-yl}-2-fluorobenzenecarbonitrile], the EC50 worked out at 80 nM with HIV-1LAI, 38 nM in test [1] and 228 nM in test [2].

Turning to `O=C1CN(C(=O)c2nc(-c3cc(F)cc(Cl)c3)c(-c3cccc(Cl)c3)s2)CN1` [Example 6, 1-{[4-(3-Chloro-5-fluorophenyl)-5-(3-chlorophenyl)-1,3-thiazole-2-yl]carbonyl}imidazolidin-4-one], the figures for the half-maximal effective concentration (EC50) (in the test with HIV-1LAI; in test [1]; in test [2]) were 95 nM, 58 nM and 282 nM, respectively.

`N#Cc1cccc(-c2sc(C(=O)N3CNC(=O)C3)nc2-c2cccc(Cl)c2)c1` [Example 7, 3-{4-(3-Chlorophenyl)-2-[(4-oxoimidazolidin-1-yl)carbonyl]-1,3-thiazole-5-yl}benzenecarbonitrile]: the results for the EC50 (with HIV-1LAI; in test [1]; in test [2]) were 20 nM, 36 nM and 303 nM, respectively.

On to `O=C1CN(C(=O)c2nc(-c3cccc(Cl)c3)c(-c3cccc(C(F)(F)F)c3)s2)CN1` [Example 8, 1-({4-(3-Chlorophenyl)-5-[3-(trifluoromethyl)phenyl]-1,3-thiazole-2-yl}carbonyl)imidazolidin-4-one], for which the half-maximal effective concentration (EC50) in test [1] worked out at 46 nM; in test [2] it was 142 nM.

Turning to `N#Cc1cc(-c2sc(C(=O)N3CNC(=O)C3)nc2-c2ccc(F)c(Cl)c2)ccc1F` [Example 9, 5-{4-(3-Chloro-4-fluorophenyl)-2-[(4-oxoimidazolidin-1-yl)carbonyl]-1,3-thiazole-5-yl}-2-fluorobenzenecarbonitrile], the EC50 was found to be 40 nM with HIV-1LAI, 35 nM in test [1] and 118 nM in test [2].

On to `N#Cc1cccc(-c2sc(C(=O)N3CNC(=O)C3)nc2-c2ccc(F)c(Cl)c2)c1` [Example 10], for which the EC50 was determined as 5 nM with HIV-1LAI, 4 nM in test [1] and 70 nM in test [2].

For `N#Cc1cc(F)cc(-c2nc(C(=O)N3CNC(=O)C3)sc2-c2cc(F)cc(Cl)c2)c1` [Example 12, 3-{5-(3-Chloro-5-fluorophenyl)-2-[(4-oxoimidazolidin-1-yl)carbonyl]-1,3-thiazole-4-yl}fluorobenzenecarbonitrile], the EC50 worked out at 80 nM in the test with HIV-1LAI, 29 nM in test [1] and 119 nM in test [2].

Regarding `N#Cc1cc(-c2nc(C(=O)N3CNC(=O)C3)sc2-c2cc(F)cc(Cl)c2)ccc1F` [Example 13, 5-{5-(3-Chloro-5-fluorophenyl)-2-[(4-oxoimidazolidin-1-yl)carbonyl]-1,3-thiazole-4-yl}-2-fluorobenzenecarbonitrile], the EC50 in the test on HIV-1LAI came out at 2 nM; in test [1], 0.6 nM; in test [2], 43 nM.

Consider `N#Cc1cc(-c2nc(C(=O)N3CNC(=O)C3)sc2-c2cccc(Cl)c2)ccc1F` [Example 14, 5-{5-(3-Chlorophenyl)-2-[(4-oxoimidazolidin-1-yl)carbonyl]-1,3-thiazole-4-yl}-2-fluorobenzenecarbonitrile], for which the EC50 in the test with HIV-1LAI was 4 nM; in test [1] it was 1 nM; in test [2] it was 49 nM.

Take `N#Cc1cc(F)cc(-c2sc(C(=O)N3CNC(=O)C3)nc2-c2ccc(F)c(C#N)c2)c1` [Example 15, 5-{5-(3-Cyano-5-fluorophenyl)-2-[(4-oxoimidazolidin-1-yl)carbonyl]-1,3-thiazole-4-yl}-2-fluorobenzenecarbonitrile]: the figures for the concentration for a half-maximal effect (EC50) (in the test on HIV-1LAI; in test [1]; in test [2]) were 2 nM, 9 nM and 87 nM, respectively.

For the molecule `N#Cc1cccc(-c2sc(C(=O)N3CNC(=O)C3)nc2-c2ccc(F)c(C#N)c2)c1` [Example 16, 5-{5-(3-Cyanophenyl)-2-[(4-oxoimidazolidin-1-yl)carbonyl]-1,3-thiazole-4-yl}-2-fluorobenzenecarbonitrile], the EC50 with HIV-1LAI was determined as 2 nM; in test [1], 15 nM; in test [2], 123 nM.

Turning to `N#Cc1cccc(-c2nc(C(=O)N3CNC(=O)C3)sc2-c2cccc(Cl)c2)c1` [Example 17], the figures for the EC50 (in the test with HIV-1LAI; in test [1]; in test [2]) were 2 nM, 0.5 nM and 64 nM, respectively.

For `N#Cc1cccc(-c2nc(C(=O)N3CNC(=O)C3)sc2-c2cc(F)cc(Cl)c2)c1` [Example 18, 3-{5-(3-Chloro-5-fluorophenyl)-2-[(4-oxoimidazolidin-1-yl)carbonyl]-1,3-thiazole-4-yl}benzenecarbonitrile], the EC50 in the test on HIV-1LAI worked out at 1 nM; in test [1], 0.4 nM; in test [2] it was 38 nM.

For `N#Cc1cccc(-c2nc(C(=O)N3CNC(=O)C3)sc2-c2cccc(C#N)c2)c1` [Example 19, 3,3′-{2-[(4-Oxoimidazolidin-1-yl)carbonyl]-1,3-thiazole-4,5-diyl}benzenecarbonitrile], the EC50 was found to be 1 nM with HIV-1LAI, 2 nM in test [1] and 94 nM in test [2].

In the case of `N#Cc1cc(F)cc(-c2sc(C(=O)N3CNC(=O)C3)nc2-c2cccc(Cl)c2)c1` [Example 21, 3-{4-(3-Chlorophenyl)-2-[(4-oxoimidazolidin-1-yl)carbonyl]-1,3-thiazole-5-yl}-5-fluorobenzenecarbonitrile], the EC50 in the test on HIV-1LAI came to 2 nM; in test [1], 2 nM; in test [2], 79 nM.

(Values after patent US8575357B2, “Substituted (thiazolyl-carbonyl)imidazolidinones and use thereof” (AiCuris GmbH & Co. KG, priority 2009, dated 2013).)
